Measured values: patent US20050037436A1, “Test systems and the use thereof for identifying and characterizing compounds” (priority 2000, published 2005)

Biological target: T1, mouse β2-adrenergic receptor (Mus musculus, UniProt P18762)
T1 construct: was fused with a C-terminal EGFP tag by amplifying the full-length cDNA with the P117 mouse 2AR XhoI 5′ primer; expressed in transfected cells; host or cells: HEK-293, transient (pEGFP-N3)
Assay: Ca2+ imaging of HEK-293 cells transfected with β2-R-GFP (control)
Type: cell-based
Conditions: BAY 44-4400 present
Method: The intracellular free Ca^2+ concentration [Ca^2+]i was measured in COS-7 and HEK293 cells transiently transfected with the HC110-R-EGFP or β2-AR-EGFP construct using the calcium imaging method (see also FIG. 11). In each case 2×10^5 COS-7 and HEK293 cells were applied to a 42 mm cover glass coated with 1% gelatine in 55 mm tissue culture dishes with 5 ml of DMEM medium (with 10% FCS and pen/strep). The transfection took place with the aid of the non-liposomal transfection reagent FuGENE 6 (Roche Molecular Biochemicals, Mannheim). […] Constructs of the HC110-R full-length clone with a GFP tag fused in the correct reading frame, and the complete cDNA of the β2-adrenergic receptor which had likewise been provided with a GFP tag at the 3′ end, were transfected.
After the incubation, the cells loaded with Fura-2/AM were examined under an inverted microscope (Zeiss, Axiovert, Germany) and, in parallel with this, in a digital imaging fluorescence microscope (PTI) and differentiated into transfected and untransfected cells at a wavelength of 440 and 490 nm respectively. On average, 5-7 transfected and non transfected cells were selected by fixing an ROI (region of interest). The extinction was measured at 340 nm (calcium-bound Fura-2/AM) and 380 nm (free Fura-2/AM), and the emission was measured at 510 nm. Evaluation took place using the Image Master 1.x software by forming the quotient of 340:510 nm, 380:510 nm and the ratio of 340/380:510 nm (background corrected images) as a function of the agent added.
Agents were always added 6 min after starting the measurement by removing an appropriate volume of Na^+ HBS buffer and pipetting the agent directly into the sample vessel for a further 30 to 50 min. The total volume in the sample vessel was constant at 1.5 ml throughout the experiment. […] Addition of CdCl2 and nifedipine took place immediately at the start of the experiment and before addition of α-LTX, and EGTA was added both at the start of the experiment and 4 min after the addition of α-LTX. […]
The data were analyzed using the Excel 98 table calculation programme. […]

T1 sequence (P18762 whole entry, the tested form may be a part): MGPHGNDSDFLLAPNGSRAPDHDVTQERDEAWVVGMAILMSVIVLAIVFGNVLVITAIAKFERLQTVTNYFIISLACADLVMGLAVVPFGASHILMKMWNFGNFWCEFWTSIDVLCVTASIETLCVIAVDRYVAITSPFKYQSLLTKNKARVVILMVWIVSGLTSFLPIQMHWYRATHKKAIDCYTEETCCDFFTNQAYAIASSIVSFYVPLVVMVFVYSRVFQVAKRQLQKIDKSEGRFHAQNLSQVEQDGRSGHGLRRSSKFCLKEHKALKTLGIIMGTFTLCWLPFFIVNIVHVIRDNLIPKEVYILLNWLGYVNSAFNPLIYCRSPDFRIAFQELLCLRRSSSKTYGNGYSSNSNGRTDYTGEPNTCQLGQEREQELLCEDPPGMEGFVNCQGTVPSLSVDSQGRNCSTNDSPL

Question: How did the “effect on isoproterenol-induced Ca2+ increase” value turn out when `CC(C)C[C@H]1C(=O)O[C@H](Cc2ccc(N3CCOCC3)cc2)C(=O)N(C)[C@@H](CC(C)C)C(=O)O[C@H](C)C(=O)N(C)[C@@H](CC(C)C)C(=O)O[C@H](Cc2ccc(N3CCOCC3)cc2)C(=O)N(C)[C@@H](CC(C)C)C(=O)O[C@H](C)C(=O)N1C` [BAY44-4400, cyclo(-D-Lac-L-MeLeu-D-p-morpholinyl-PhLac-L-MeLeu-)] was run?
Answer: does not interfere with the isoproterenol-induced signal transmission

Question: What about the “effect on isoproterenol-induced Ca2+ increase” value (listed as BAY 44-4400) of the same molecule?
Answer: unaffected by BAY 44-4400
